The values that follow come from patent publication US9809583B2 (priority 2014, dated 2017).

Sequence of androgen receptor (hAR) (P10275 whole entry): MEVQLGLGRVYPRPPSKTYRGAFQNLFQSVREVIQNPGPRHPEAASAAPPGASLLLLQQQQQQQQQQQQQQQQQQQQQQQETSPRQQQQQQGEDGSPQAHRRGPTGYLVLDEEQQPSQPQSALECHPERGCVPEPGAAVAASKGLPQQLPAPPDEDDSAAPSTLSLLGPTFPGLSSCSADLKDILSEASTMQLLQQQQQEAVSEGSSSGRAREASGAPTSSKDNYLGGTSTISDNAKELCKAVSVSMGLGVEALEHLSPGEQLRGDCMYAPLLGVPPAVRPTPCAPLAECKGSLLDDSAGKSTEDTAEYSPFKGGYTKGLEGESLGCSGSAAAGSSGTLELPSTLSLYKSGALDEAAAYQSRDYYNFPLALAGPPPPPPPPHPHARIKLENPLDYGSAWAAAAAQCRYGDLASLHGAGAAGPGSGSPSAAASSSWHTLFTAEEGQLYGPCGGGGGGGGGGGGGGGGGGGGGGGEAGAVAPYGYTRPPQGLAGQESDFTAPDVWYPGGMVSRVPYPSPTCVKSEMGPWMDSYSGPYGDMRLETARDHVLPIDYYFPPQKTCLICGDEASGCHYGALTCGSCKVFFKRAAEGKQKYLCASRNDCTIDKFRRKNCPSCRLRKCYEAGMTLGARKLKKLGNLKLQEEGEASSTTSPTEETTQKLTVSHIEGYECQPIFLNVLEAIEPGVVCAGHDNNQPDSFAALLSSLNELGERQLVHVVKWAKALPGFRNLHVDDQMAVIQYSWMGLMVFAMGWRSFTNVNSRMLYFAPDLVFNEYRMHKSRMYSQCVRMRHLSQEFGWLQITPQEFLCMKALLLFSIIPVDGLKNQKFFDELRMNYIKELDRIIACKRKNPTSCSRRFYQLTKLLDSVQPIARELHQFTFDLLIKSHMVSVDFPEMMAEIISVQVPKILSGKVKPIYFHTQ

The first assay concerns the target androgen receptor (hAR) (Homo sapiens (Human), UniProt P10275). Briefly: Test of transcriptional activity (hAR / ARE-Luc dual-luciferase assay in CHO cells). The format is cell-based. To be noted: CHO cells with hAR and ARE-Luc, 24 hours; 10 nM DHT = 100%; read-out: EC50 [nM] (mean ± SE). The essentials:
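CHO cells cultured 24 h, then transfected with hAR and ARE-Luc plasmids. Transfected cells treated with 0.1˜10,000 nM compound for 24 h; transcriptional activity read by dual-luciferase reporter.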
As for `N#Cc1ccc(OC[C@@H]2CN(c3ccc([N+](=O)[O-])c(C(F)(F)F)c3)[C@@H](C(F)(F)F)O2)cc1` [Example 64, 4-(((2R,5S)-3-(4-nitro-3-(trifluoromethyl)phenyl)-2-(trifluoromethyl)oxazolidin-5-yl)methoxy)benzonitrile], the EC50 amounted to 34 nM.

Turning to “(2R,5S)-3-(3-chloro-4-cyanophenyl)-N-(4-cyanophenyl)-2-(trifluoromethyl)oxazolidine-5-carboxamide [Example 117]”, the EC50 came to 2 nM.

Turning to `COC(=O)N1CCN(C(=O)[C@@H]2CN(c3ccc([N+](=O)[O-])c(C)c3)[C@@H](C(F)(F)F)O2)CC1` [Example 179, methyl 4-((2R,5S)-3-(3-methyl-4-nitrophenyl)-2-(trifluoromethyl)oxazolidine-5-carbonyl)piperazine-1-carboxylate], the concentration for a half-maximal effect (EC50) amounted to 42 nM.

As for “(2R,5S)-N-(6-cyanopyridin-3-yl)-3-(3-methyl-4-nitrophenyl)-2-(trifluoromethyl)oxazolidine-5-carboxamide [Example 116]”, the EC50 turned out to be 4.32 nM.

Consider “(2R,5S)-N-(3-chloro-4-cyanophenyl)-3-(4-cyano-3-(trifluoromethyl)phenyl)-2-(trifluoromethyl)oxazolidine-5-carboxamide [Example 134]”, for which the concentration giving a half-maximal response (EC50) is 4.96 nM.

For the compound “(2R,5S)-N-(2-chloropyridin-4-yl)-3-(3-methyl-4-nitrophenyl)-2-(trifluoromethyl)oxazolidine-5-carboxamide [Example 137]”, the half-maximal effective concentration (EC50) turned out to be 1.77 nM.

On to “(2R,5S)-3-(4-cyano-3-(trifluoromethyl)phenyl)-N-(3,4-dicyanophenyl)-2-(trifluoromethyl)oxazolidine-5-carboxamide [Example 132]”, for which the concentration giving a half-maximal response (EC50) was determined as 3.44 nM.

For “(2R,5S)-3-(3-chloro-4-cyanophenyl)-N-(6-cyanopyridin-3-yl)-2-(trifluoromethyl)oxazolidine-5-carboxamide [Example 120]”, the concentration giving a half-maximal response (EC50) is 11.1 nM.

As for “(2R,5S)-N-(4-cyano-2-methylphenyl)-3-(4-cyano-3-(trifluoromethyl)phenyl)-2-(trifluoromethyl)oxazolidine-5-carboxamide [Example 133]”, the 50% effective concentration (EC50) worked out at 44 nM.

With `Cc1cc(N2C[C@@H](COc3ccc(/C=N/O)cc3)O[C@@H]2C(F)(F)F)ccc1[N+](=O)[O-]` [Example 70, (E)-4-(((2R,5S)-3-(3-methyl-4-nitrophenyl)-2-(trifluoromethyl)oxazolidin-5-yl)methoxy)benzaldehyde oxime], the EC50 stood at 0.62 nM.

The assay is the same for the next values; noted with them: EC50 [nM] (mean ± SE), CHO cells with hAR and ARE-Luc, 24 hours; 10 nM DHT = 100%.
The compound `COC(=O)N1CCN(C(=O)[C@@H]2CN(c3ccc(C#N)c(Cl)c3)[C@@H](C(F)(F)F)O2)CC1` [Example 178, methyl 4-((2R,5S)-3-(3-chloro-4-cyanophenyl)-2-(trifluoromethyl)oxazolidine-5-carbonyl)piperazine-1-carboxylate] displayed a half-maximal effective concentration (EC50) of 21.2 nM.

Turning to `CO/N=C/c1ccc(OC[C@@H]2CN(c3ccc(C#N)c(C(F)(F)F)c3)[C@@H](C(F)(F)F)O2)cc1` [Example 85, 4-((2R,5S)-5-((4-((E)-(methoxyimino)methyl)phenoxy)methyl)-2-(trifluoromethyl)oxazolidin-3-yl)-2-(trifluoromethyl)benzonitrile], the concentration for a half-maximal effect (EC50) came out at 9.84 nM.

Regarding `N#Cc1ccc(N2C[C@@H](C(=O)Nc3ccncc3)O[C@@H]2C(F)(F)F)cc1C(F)(F)F` [Example 107, (2R,5S)-3-(4-cyano-3-(trifluoromethyl)phenyl)-N-(pyridin-4-yl)-2-(trifluoromethyl)oxazolidine-5-carboxamide], the midpoint of the response, the EC50, lay at 7.18 nM.

As to `N#Cc1ccc(N2C[C@@H](COc3ccc(NC(N)=O)cc3)O[C@@H]2C(F)(F)F)cc1C(F)(F)F` [Example 15, 1-(4-(((2R,5S)-3-(4-cyano-3-(trifluoromethyl)phenyl)-2-(trifluoromethyl)oxazolidin-5-yl)methoxy)phenyl)urea], it took 15.7 nM to reach a half-maximal effect (EC50).

The compound `Cc1c(N2C[C@@H](COc3ccc(/C=N/O)cc3)O[C@@H]2C(F)(F)F)ccc(C#N)c1Cl` [Example 78, 2-chloro-4-((2R,5S)-5-((4-((E)-(hydroxyimino)methyl)phenoxy)methyl)-2-(trifluoromethyl)oxazolidin-3-yl)-3-methylbenzonitrile] had a 50% effective concentration (EC50) of 4.91 nM.

Turning to `N#Cc1ccc(N2C[C@@H](C(=O)Nc3ccc(NC(=O)CO)cc3)O[C@@H]2C(F)(F)F)cc1C(F)(F)F` [Example 160, (2R,5S)-3-(4-cyano-3-(trifluoromethyl)phenyl)-N-(4-(2-hydroxyacetamido)phenyl)-2-(trifluoromethyl)oxazolidine-5-carboxamide], a half-maximal effect (EC50) was put at 105 nM.

Consider `Cc1c(N2C[C@@H](COc3ccc(C#N)cc3)O[C@H]2C(F)(F)F)ccc(C#N)c1Cl` [Example 84, 2-chloro-4-((2S,5S)-5-((4-cyanophenoxy)methyl)-2-(trifluoromethyl)oxazolidin-3-yl)-3-methylbenzonitrile], for which the concentration for a half-maximal effect (EC50) was found to be 1140 nM.

Regarding `N#Cc1ccc(NC(=O)[C@@H]2CN(c3ccc(C#N)c(C(F)(F)F)c3)[C@@H](C(F)(F)F)O2)cc1C(F)(F)F` [Example 144, (2R,5S)-N,3-bis(4-cyano-3-(trifluoromethyl)phenyl)-2-(trifluoromethyl)oxazolidine-5-carboxamide], the EC50 came out at 11.1 nM.

Turning to `N#Cc1ccc(N2C[C@@H](C(=O)Nc3ccc(NC(N)=O)cc3)O[C@@H]2C(F)(F)F)cc1C(F)(F)F` [Example 161, (2R,5S)-3-(4-cyano-3-(trifluoromethyl)phenyl)-2-(trifluoromethyl)-N-(4-ureidophenyl)oxazolidine-5-carboxamide], a half-maximal effect (EC50) was put at 240 nM.

`CC(C)(C)OC(=O)NCc1ccc(OC[C@@H]2CN(c3ccc(C#N)c(C(F)(F)F)c3)[C@@H](C(F)(F)F)O2)cc1` [Example 88] returned an EC50 of 926 nM.

For `N#Cc1ccc(N2C[C@@H](COc3ccc(/C=N/O)cc3[N+](=O)[O-])O[C@@H]2C(F)(F)F)cc1C(F)(F)F` [Example 98, 4-((2R,5S)-5-((4-((E)-(hydroxyimino)methyl)-2-nitrophenoxy)methyl)-2-(trifluoromethyl)oxazolidin-3-yl)-2-(trifluoromethyl)benzonitrile], a half-maximal response (EC50) required 2.91 nM.

For `N#Cc1ccc(N2C[C@@H](COc3ccccc3)O[C@@H]2C(F)(F)F)cc1C(F)(F)F` [Example 58, 4-((2R,5S)-5-(phenoxymethyl)-2-(trifluoromethyl)oxazolidin-3-yl)-2-(trifluoromethyl)benzonitrile], it took 107 nM to reach a half-maximal effect (EC50).

For the compound `N#Cc1ccc(N2C[C@@H](C(=O)Nc3ccc([N+](=O)[O-])cc3F)O[C@@H]2C(F)(F)F)cc1C(F)(F)F` [Example 104], the response was half-maximal at 24.9 nM (EC50).

On to `N#Cc1ccc(N2C[C@@H](COc3ccc(NC(=O)CO)cc3)O[C@@H]2C(F)(F)F)cc1C(F)(F)F` [Example 94, N-(4-(((2R,5S)-3-(4-cyano-3-(trifluoromethyl)phenyl)-2-(trifluoromethyl)oxazolidin-5-yl)methoxy)phenyl)-2-hydroxyacetamide], for which the midpoint of the response, the EC50, lay at 4.12 nM.

Consider `Cc1c(N2C[C@@H](COc3ccc(C#N)nc3)O[C@@H]2C(F)(F)F)ccc(C#N)c1Cl` [Example 77, 5-(((2R,5S)-3-(3-chloro-4-cyano-2-methylphenyl)-2-(trifluoromethyl)oxazolidin-5-yl)methoxy)picolinonitrile], for which the concentration giving a half-maximal response (EC50) turned out to be 10.6 nM.

Compound `N#Cc1ccc(N2C[C@@H](C(=O)Nc3ccnc(Cl)c3)O[C@@H]2C(F)(F)F)cc1C(F)(F)F` [Example 142, (2R,5S)-N-(2-chloropyridin-4-yl)-3-(4-cyano-3-(trifluoromethyl)phenyl)-2-(trifluoromethyl)oxazolidine-5-carboxamide] registered an EC50 of 0.79 nM.

For the compound `N#Cc1ccc(N2C[C@@H](C(=O)Nc3ccc(N)cc3)O[C@@H]2C(F)(F)F)cc1C(F)(F)F` [Example 156, (2R,5S)-N-(4-aminophenyl)-3-(4-cyano-3-(trifluoromethyl)phenyl)-2-(trifluoromethyl)oxazolidine-5-carboxamide], the concentration for a half-maximal effect (EC50) came to 323 nM.

With `N#Cc1ccc(N2C[C@@H](COc3ccc(NC(=O)Oc4ccccc4)cc3)O[C@@H]2C(F)(F)F)cc1C(F)(F)F` [Example 43, phenyl (4-(((2R,5S)-3-(4-cyano-3-(trifluoromethyl)phenyl)-2-(trifluoromethyl)oxazolidin-5-yl)methoxy)phenyl)carbamate], the EC50 was determined as 21.3 nM.

`N#Cc1ccc(N2C[C@@H](C(=O)Nc3ccc([N+](=O)[O-])cc3Cl)O[C@@H]2C(F)(F)F)cc1C(F)(F)F` [Example 151, (2R,5S)-N-(2-chloro-4-nitrophenyl)-3-(4-cyano-3-(trifluoromethyl)phenyl)-2-(trifluoromethyl)oxazolidine-5-carboxamide] showed an EC50 of 43.7 nM.
